Source: ChEMBL document CHEMBL1201862, “PubChem BioAssay data set” (2004)
Active and inactive are the calls of the source.

Experiments:
[1] = biological target: T1, Heat shock factor protein 1 (Mus musculus, UniProt P38532); experiment: enhancement of HSF1-driven luciferase signal – cell-based, NIH3T3, luminescence, dose retest, confirmation (AID 435004); type: functional;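 note: stress induced by proteasome inhibitor MG132 added 30 min after compound; luciferase reporter driven by HSF1 response element in NIH3T3 cells; actives raise luminescence as potentiators of the MG132 stress response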
T1 sequence (P38532 whole entry): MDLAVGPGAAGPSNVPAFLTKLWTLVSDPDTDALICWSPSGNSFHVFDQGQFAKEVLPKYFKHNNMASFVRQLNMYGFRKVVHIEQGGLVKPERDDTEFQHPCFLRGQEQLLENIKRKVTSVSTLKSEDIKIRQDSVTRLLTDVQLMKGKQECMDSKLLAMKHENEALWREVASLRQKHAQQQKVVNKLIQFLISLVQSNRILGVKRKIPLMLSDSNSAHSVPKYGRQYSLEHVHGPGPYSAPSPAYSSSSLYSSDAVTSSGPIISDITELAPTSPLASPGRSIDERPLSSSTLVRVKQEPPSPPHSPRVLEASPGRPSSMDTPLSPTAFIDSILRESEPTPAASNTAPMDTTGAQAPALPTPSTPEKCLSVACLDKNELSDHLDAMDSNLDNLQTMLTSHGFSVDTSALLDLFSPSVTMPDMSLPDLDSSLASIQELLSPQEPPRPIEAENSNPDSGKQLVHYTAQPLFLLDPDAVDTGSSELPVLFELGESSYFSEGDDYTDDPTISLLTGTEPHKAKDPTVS

[2] = biological target: T2, Protein RecA (Mycobacterium tuberculosis, UniProt P9WHJ3); experiment: Fluorescence Cell-Free Homogeneous Dose Retest to Identify Inhibitors of RecA-Intein Splicing Activity. [Related pubchem assays (depositor defined):AID2097, AID2223, AID489010, AID492950]; type: functional
T2 sequence (P9WHJ3 whole entry): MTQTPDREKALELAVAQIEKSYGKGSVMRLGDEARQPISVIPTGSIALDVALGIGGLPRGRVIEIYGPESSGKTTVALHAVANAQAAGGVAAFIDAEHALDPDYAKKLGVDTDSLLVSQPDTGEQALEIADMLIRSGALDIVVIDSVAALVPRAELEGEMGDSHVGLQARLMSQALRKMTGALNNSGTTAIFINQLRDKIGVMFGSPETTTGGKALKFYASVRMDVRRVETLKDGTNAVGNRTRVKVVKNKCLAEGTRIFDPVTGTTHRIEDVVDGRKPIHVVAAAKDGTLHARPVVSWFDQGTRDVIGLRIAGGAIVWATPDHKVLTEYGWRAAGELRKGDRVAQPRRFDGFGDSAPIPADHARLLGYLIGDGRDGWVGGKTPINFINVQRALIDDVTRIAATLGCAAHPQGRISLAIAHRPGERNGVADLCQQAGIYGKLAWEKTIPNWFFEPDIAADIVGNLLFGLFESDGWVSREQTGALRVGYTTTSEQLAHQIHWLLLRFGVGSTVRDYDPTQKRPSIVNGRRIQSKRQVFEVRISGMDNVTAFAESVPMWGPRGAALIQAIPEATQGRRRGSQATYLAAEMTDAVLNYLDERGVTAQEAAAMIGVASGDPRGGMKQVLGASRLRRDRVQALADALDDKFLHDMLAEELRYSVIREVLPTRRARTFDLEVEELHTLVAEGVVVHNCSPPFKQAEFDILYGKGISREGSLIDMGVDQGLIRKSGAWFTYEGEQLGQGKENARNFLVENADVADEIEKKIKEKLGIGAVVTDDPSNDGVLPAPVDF

[3] = biological target: T3, Replicative DNA helicase DnaB (Mycobacterium tuberculosis, UniProt P9WMR3); experiment: DnaB intein splicing inhibitors, dose response, biochemical, cell-free fluorescence (AID 449749); type: functional
T3 sequence (P9WMR3 whole entry): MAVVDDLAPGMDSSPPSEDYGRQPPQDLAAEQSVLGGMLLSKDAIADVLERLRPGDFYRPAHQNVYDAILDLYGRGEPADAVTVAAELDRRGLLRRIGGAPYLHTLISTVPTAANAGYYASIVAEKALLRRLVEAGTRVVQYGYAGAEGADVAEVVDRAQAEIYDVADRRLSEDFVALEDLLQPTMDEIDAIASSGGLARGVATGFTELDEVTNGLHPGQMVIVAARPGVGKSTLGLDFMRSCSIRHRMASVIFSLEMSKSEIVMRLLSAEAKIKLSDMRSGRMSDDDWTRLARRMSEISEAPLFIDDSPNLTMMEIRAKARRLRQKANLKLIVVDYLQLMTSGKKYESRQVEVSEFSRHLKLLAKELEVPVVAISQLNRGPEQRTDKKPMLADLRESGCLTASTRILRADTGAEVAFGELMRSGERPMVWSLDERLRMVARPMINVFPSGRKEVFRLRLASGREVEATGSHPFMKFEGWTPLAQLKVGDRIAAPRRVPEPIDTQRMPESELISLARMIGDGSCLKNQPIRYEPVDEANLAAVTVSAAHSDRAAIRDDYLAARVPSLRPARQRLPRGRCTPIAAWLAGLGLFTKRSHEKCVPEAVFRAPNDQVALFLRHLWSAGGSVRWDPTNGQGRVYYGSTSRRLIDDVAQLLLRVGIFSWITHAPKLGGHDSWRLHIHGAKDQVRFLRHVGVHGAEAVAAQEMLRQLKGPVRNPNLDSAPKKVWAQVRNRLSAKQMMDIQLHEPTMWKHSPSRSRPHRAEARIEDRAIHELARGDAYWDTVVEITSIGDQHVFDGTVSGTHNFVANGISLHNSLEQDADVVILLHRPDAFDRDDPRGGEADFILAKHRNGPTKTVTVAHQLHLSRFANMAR

[4] = biological target: Hepatocyte nuclear factor 4-alpha (Homo sapiens, UniProt P41235); type: functional, cell-based;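 note: biochemical luminescence-based dose-response counterscreen measuring inhibition of HNF4 dimerization, run alongside a screen for blockers of ABHD5–perilipin-5 interaction; split luciferase complementation of HNF4 fusion proteins in cell lysate measuring dimerization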
Hepatocyte nuclear factor 4-alpha, sequence (P41235 whole entry, the tested form may be a part): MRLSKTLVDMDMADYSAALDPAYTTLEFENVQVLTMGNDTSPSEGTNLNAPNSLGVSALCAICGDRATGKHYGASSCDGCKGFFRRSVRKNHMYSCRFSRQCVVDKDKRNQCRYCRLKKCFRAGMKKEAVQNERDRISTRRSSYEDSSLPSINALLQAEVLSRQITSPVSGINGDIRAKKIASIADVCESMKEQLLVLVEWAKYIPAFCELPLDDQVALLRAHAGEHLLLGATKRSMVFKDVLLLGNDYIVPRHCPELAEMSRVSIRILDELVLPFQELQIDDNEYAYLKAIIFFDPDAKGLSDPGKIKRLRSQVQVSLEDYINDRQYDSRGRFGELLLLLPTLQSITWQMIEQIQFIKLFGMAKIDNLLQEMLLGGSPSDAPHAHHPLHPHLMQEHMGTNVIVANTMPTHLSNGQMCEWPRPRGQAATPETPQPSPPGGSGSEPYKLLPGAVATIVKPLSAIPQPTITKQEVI

[5] = biological target: T4, DNA repair and recombination protein RAD54-like (Homo sapiens, UniProt Q92698); experiment: RAD54 Holliday junction migration blockers – biochemical, fluorescence, cherry-picked samples, dose series, confirmation (AID 651657); type: functional
T4 sequence (Q92698 whole entry): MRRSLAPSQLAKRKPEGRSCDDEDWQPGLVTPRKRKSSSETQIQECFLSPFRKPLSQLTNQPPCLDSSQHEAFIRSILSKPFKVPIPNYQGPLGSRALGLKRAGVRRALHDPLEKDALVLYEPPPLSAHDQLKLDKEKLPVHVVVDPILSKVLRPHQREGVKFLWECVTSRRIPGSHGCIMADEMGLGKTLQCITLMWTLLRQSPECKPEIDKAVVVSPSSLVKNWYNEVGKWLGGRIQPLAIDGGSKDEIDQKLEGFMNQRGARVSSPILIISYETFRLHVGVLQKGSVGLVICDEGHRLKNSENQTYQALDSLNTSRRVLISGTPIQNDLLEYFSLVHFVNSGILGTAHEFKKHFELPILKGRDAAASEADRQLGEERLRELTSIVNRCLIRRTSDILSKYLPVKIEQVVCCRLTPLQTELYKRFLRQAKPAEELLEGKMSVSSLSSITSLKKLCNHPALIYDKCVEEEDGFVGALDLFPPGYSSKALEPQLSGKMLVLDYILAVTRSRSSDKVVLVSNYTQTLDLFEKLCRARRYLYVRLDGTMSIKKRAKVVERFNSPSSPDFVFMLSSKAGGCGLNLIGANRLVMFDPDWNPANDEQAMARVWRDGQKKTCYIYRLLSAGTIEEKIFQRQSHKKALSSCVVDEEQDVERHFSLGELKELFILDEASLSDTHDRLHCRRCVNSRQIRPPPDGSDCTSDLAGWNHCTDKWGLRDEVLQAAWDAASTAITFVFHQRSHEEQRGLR

[6] = cytotoxicity toward MDA-MB-231 breast cancer cells – cell-based, CellTiter-Glo luminescence, cherry-pick, cytotoxicity control for RAD54 inhibitor project, dose response (AID 651692); type: functional
[7] = blockers of CRF-binding protein–CRF-R2 complex – cell-based, uHTS hits, 384-well, dose response (AID 651639); type: functional, Homo sapiens; details: read-out: IC50_Mean
[8] = biological target: T5, Corticotropin-releasing factor receptor 2/Corticotropin-releasing factor-binding protein (Homo sapiens, UniProt P24387+Q13324); experiment: activators of CRF receptor 2 with binding protein – uHTS hits, confirmation (AID 602473); type: functional; details: read-out: EC50_Mean
T5 sequence (Q13324 whole entry): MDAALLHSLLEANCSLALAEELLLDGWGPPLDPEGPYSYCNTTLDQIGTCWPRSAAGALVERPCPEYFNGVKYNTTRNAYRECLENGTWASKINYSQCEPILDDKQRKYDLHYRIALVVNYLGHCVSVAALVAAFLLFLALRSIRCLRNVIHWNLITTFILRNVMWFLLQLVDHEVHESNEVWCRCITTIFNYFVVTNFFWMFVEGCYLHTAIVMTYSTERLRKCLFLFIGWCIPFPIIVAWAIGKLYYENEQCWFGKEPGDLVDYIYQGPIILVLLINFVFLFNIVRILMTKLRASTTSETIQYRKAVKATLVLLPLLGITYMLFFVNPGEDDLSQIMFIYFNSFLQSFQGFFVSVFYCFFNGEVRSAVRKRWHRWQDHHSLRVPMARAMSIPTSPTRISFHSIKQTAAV
T5 sequence (P24387 whole entry): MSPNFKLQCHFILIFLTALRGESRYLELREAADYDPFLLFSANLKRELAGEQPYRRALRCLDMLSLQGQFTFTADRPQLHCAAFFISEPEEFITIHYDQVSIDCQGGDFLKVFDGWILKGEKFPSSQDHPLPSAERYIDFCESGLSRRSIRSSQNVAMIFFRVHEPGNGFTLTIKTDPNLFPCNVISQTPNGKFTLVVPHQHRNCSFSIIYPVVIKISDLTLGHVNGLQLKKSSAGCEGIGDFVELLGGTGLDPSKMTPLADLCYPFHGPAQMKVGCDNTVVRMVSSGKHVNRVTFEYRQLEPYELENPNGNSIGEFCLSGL

[9] = biological target: T5, Corticotropin-releasing factor receptor 2/Corticotropin-releasing factor-binding protein; experiment: Dose Response confirmation of uHTS hits for small molecule antagonists of the CRF-binding protein and CRF-R2 receptor complex.; type: functional; details: read-out: IC50_Mean
[10] = biological target: Photoreceptor-specific nuclear receptor (Homo sapiens, UniProt Q9Y5X4); type: functional, cell-based;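 note: CHO-S cells with Gal4-NCOR and VP16-NR2E3 two-hybrid luciferase reporter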
Photoreceptor-specific nuclear receptor, sequence (Q9Y5X4 whole entry, the tested form may be a part): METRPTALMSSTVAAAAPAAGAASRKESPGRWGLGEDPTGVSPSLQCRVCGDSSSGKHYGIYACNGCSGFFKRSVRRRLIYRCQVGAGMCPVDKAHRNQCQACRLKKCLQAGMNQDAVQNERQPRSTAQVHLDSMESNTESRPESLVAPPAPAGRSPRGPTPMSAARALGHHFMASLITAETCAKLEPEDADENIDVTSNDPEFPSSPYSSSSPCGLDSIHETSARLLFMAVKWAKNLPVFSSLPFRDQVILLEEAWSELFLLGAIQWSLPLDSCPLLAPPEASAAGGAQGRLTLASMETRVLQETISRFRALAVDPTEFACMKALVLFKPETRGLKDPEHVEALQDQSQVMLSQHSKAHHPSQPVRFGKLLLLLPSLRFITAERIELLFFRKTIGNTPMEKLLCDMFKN

[11] = system: H9c2; experiment: cells; type: functional, cell-based; details: Rattus norvegicus, H9c2, Myocardium;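 note: confirmatory concentration-response retest of ultra-high-throughput screening hits for modulation of myocardial damage; cell death induced by hydrogen peroxide oxidative stress; compound pretreatment for 60 min then peroxide exposure for 2 h; potency is for protecting the cells against peroxide damage rather than for killing them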
[12] = biological target: T6, ATP-dependent translocase ABCB1 (Homo sapiens, UniProt P08183); experiment: P-gp JC-1 efflux blockade concentration-response – Jurkat-DNR cells, flow cytometry, set 2, dose response (AID 504569); type: functional; details: read-out: EC50_MICROM_;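 note: potency of pump inhibitors that raise cellular JC-1 green fluorescence up to the nicardipine level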
T6 sequence (P08183 whole entry): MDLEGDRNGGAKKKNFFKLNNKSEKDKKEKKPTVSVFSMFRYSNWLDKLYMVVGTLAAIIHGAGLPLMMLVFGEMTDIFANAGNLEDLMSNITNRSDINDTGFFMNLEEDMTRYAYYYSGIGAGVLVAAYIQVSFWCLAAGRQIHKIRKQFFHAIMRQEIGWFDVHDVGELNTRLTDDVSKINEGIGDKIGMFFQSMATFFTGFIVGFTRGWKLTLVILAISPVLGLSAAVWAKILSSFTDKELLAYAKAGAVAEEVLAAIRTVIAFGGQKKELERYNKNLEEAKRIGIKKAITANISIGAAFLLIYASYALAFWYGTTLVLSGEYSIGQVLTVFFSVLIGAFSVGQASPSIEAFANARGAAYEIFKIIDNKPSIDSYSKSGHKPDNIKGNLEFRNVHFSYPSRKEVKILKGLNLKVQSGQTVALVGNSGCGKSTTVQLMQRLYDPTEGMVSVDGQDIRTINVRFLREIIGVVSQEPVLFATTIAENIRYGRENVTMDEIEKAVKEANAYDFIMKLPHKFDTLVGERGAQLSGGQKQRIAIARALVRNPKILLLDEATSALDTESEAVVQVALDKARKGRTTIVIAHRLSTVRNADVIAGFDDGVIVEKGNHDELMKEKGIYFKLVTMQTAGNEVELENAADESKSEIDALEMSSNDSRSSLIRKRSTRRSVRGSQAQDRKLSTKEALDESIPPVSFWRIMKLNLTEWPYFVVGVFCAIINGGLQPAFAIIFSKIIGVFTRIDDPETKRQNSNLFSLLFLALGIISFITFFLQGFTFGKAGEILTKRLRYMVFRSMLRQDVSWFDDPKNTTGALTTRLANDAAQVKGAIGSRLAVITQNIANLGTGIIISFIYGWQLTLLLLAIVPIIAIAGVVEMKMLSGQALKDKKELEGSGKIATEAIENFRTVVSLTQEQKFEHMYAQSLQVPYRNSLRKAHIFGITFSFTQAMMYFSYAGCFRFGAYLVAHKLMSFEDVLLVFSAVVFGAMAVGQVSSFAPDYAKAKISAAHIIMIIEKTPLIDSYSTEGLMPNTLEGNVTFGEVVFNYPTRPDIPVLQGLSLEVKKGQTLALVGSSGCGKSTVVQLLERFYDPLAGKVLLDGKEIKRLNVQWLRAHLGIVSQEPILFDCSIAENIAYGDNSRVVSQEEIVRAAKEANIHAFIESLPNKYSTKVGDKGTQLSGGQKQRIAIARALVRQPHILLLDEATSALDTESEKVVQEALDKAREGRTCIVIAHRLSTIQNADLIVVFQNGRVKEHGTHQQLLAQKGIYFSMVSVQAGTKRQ

[13] = biological target: T6, ATP-dependent translocase ABCB1; experiment: inhibition of BCRP-mediated JC-1 efflux – Ig-MXP3 cells, flow cytometry, set 2, dose response (AID 504566); type: functional; details: read-out: EC50_MICROM_;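 note: flow cytometry median green fluorescence of retained JC-1 dye; potency of efflux pump inhibition measured as rising substrate retention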
[14] = biological target: T7, Low molecular weight phosphotyrosine protein phosphatase (Homo sapiens, UniProt P24666); type: functional; details: read-out: IC50_Mean
T7 sequence (P24666 whole entry): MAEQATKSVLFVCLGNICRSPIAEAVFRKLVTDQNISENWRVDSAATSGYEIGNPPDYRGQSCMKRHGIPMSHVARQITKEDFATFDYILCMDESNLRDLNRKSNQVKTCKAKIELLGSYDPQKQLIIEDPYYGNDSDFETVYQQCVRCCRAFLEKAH

[15] = biological target: T8, Carboxy-terminal domain RNA polymerase II polypeptide A small phosphatase 1 (Homo sapiens, UniProt Q9GZU7); experiment: CTDSP1 inhibitors, concentration-response, biochemical, absorbance readout, ultra-high-throughput screen actives (AID 540297); type: functional
T8 sequence (Q9GZU7 whole entry): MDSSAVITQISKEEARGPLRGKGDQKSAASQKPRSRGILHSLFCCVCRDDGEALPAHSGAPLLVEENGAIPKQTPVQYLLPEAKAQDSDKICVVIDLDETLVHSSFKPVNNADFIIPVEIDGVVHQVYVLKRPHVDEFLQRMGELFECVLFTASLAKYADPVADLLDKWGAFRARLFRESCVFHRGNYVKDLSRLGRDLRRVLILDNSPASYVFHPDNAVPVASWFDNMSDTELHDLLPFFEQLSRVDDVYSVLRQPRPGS

[16] = biological target: T7, Low molecular weight phosphotyrosine protein phosphatase; type: functional; details: read-out: IC50_Mean; remark: listed apart in the source
[17] = Trypanosoma cruzi growth suppression in host cells – NIH3T3 host cells, beta-gal luminescence, confirmation (AID 2044); type: functional, cell-based;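 note: intracellular parasites grown in NIH/3T3 mouse fibroblasts as host cells; luminescent beta-galactosidase reporter signal from transgenic T. cruzi replicating inside host cells; inhibitors lower the luminescence signal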
[18] = biological target: T9, Probable nicotinate-nucleotide adenylyltransferase (Staphylococcus aureus (strain N315), UniProt P65502); type: functional, Staphylococcus aureus subsp. aureus N315;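 for IC50 Mean: confirmatory dose-response retesting of NadD inhibitor hits first found in an ultra-high-throughput screen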
T9 sequence (P65502 whole entry): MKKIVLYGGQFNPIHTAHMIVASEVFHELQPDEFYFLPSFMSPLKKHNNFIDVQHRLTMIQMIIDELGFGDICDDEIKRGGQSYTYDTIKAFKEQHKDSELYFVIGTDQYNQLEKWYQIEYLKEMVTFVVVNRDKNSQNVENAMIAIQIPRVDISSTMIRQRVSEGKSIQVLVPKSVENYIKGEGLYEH

[19] = viability of uninfected HEp-2 cells – cell-based, HTS, cytotoxicity control for RSV inhibitor project, dose response (AID 2410); type: functional; details: human respiratory syncytial virus
[20] = NIH3T3 cell viability loss – ATP luminescence, mouse fibroblasts, counter-screen, dose response (AID 2010); type: functional, cell-based;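 note: cells exposed to compound for about 90 hours before reading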
[21] = biological target: Albumin (Bos taurus, UniProt P02769); experiment: Counterscreen for inhibitors of T-cell receptor (TCR)-CD3 interaction: Fluorescence-based biochemical high throughput dose response assay to identify inhibitors of T-cell receptor (TCR)-CD3 interaction using a TAMRA-labeled BSA probe.; type: functional
Albumin, sequence (P02769 whole entry): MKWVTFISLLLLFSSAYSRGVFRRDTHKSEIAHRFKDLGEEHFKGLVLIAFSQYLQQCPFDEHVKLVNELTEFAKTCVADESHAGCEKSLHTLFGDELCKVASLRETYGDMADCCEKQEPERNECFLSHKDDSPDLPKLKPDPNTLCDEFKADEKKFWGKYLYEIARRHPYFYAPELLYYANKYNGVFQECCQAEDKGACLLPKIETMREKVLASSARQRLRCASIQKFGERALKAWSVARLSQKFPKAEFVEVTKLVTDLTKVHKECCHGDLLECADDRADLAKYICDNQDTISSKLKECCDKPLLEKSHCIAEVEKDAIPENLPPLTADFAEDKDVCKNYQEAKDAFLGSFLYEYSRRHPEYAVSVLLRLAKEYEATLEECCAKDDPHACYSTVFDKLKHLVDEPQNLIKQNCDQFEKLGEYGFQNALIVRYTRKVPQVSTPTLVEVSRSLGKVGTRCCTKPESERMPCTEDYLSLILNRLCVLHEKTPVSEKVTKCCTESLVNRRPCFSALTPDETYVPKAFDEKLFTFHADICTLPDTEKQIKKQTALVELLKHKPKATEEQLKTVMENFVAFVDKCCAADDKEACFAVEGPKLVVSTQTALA

[22] = biological target: T9, Probable nicotinate-nucleotide adenylyltransferase; type: functional, Staphylococcus aureus subsp. aureus N315; details: read-out: IC50_Mean

## N#Cc1ncc(Cc2ccccc2)nc1C#N
[1]
  EC50: 18.1 µM (active)
[2]
  EC50: 1.71 µM (active)
[3]
  AC50: 2.42 µM (active)
[4]
  IC50: 18.1 µM (inactive)

## CCCCN(CC)CCNC(=O)c1cc2c(O)nc3ccc(C)cc3c2s1
[5]
  AC50: 100 µM (inactive)
[6]
  AC50: 23.1 µM (active)

## CN(CCOc1ccc(Cl)cc1)C(=O)C1CCN(C(=O)c2ccc(Cl)cc2)CC1
[7]
  IC50: > 20 µM (inactive)
[8]
  EC50: > 53 µM (inactive)
[9]
  IC50: < 0.368 µM (active)

## O=C(O)CC1(CC(=O)Nc2cc(C(F)(F)F)cc(C(F)(F)F)c2)CCCCC1
[10]
  IC50: 2.23 µM (active)

## COc1ccc(-c2cc3nc(-c4ccccc4)cc(N4CCN(C(C)=O)CC4)n3n2)cc1
[11]
  IC50: > 79 µM (inactive)
[12]
  EC50: 1.94 µM (active)
[13]
  EC50: 1.47 µM (active)

## O=C(NNC(=O)c1ccc2ccccc2c1)c1ccc(Cl)cc1
[14]
  IC50: 54.1 µM (inactive)
[15]
  IC50: > 80 µM (inactive)
[16]
  IC50: 20 µM (inactive)

## COCCn1/c(=N/C(=O)c2cc(-c3cccs3)nc3ccccc23)sc2cc(S(N)(=O)=O)ccc21
[17]
  EC50: 2.47 µM (active)
[18]
  IC50: 12.4 µM (active)
[19]
  CC50: > 50 µM (active)
[20]
  EC50: > 60 µM (not active)
[21]
  IC50: > 94.1 µM (inactive)
[22]
  IC50: 23.8 µM (active)
